Each structure is given as a SMILES string.

Experiment [1] has as its system HEMC-SS cells. In words: Cell cycle determination and apoptosis (Annexin V) evaluation by flow cytometry. Format: cell-based, human. As for the experimental part: At 24 hours before treatment, 1.10^6 HEMC-SS cells were seeded in 6-well plates (Nunc) at 3 mL/well of corresponding culture media. Cells were treated with 8-QA compound at 25 μM, 50 μM, or 100 μM final concentrations for 24 hours, under either normoxic (21% O2, 5% CO2, 37°C) or hypoxic (N2, O2 < 0.3%, N2, 37°C) conditions. After incubation, the cells were harvested by trypsinization. The cell suspension containing both floating and adherent cells was centrifuged (400 g, 8 min at +4°C) in PBS. Cell cycle analyses were carried out by resuspending cells in 500 μL of ribonuclease 1 (1 mg/mL) added with 500 μL of propidium iodide (1 mg/mL) (Sigma Aldrich), and apoptotic cells were detected using the Annexin V-FITC kit (Miltenyi Biotec). The cell cycle distribution and proportion of apoptotic cells were analyzed by flow cytometrey (LSR II flow cytometer, BD Biosciences). Experiments were performed in triplicates. Data are represented as means ± SD. For cell cycle analyses, statistical significance was determined using two-way ANOVA followed by Tukey's post-hoc multiple comparison test. For Annexin V test, significance was determined using two-way ANOVA followed by Bonferroni's post-hoc multiple comparison test.
Background: In flow cytometry, cells or beads pass a laser one at a time.

Experiment [2] deals with HEMC-SS xenograft tumors. In words: Characterization of treated tumors (histology, western blot, immunohistochemistry). The note with it: for γH2AX-positive cells in pimonidazole-positive hypoxic tumor areas: immunostaining on consecutive tumor sections. Format: in vivo, SCID mice. As to the method:
The day after the last dose, 50% of animals of each group were euthanized by CO2 inhalation, and tumors were sampled for histology and immunohistochemistry analyses (n≥3 tumors samples per group of treatment).
Approximately 30 μg of proteins from tumors (n = 3 independent tumor samples per group of treatment) recovered one day after last dose were loaded onto 10% acrylamide gels and separated by SDS-PAGE. Proteins were then transferred to nitrocellulose membranes (Millipore) and incubated with specific primary antibodies p53S15 (Cell Signaling), p21 (Santa Cruz), p-Chk1 (S345) (Cell Signaling) or GAPDH (Santa Cruz) used as housekeeping protein. Antibody-antigen interaction was evidenced by chemiluminescence (Amersham) using HRP-conjugated secondary antibodies (Southern Biotech). Signal was detected and quantified using Image Lab software (BioRad). Data are represented as means ± SD. Statistical significance was determined using one-way ANOVA followed by Tukey's post-hoc multiple comparisons test. Results were considered significant at p < 0.05.
For tumors, the exogenous hypoxia marker pimonidazole hydrochloride (Hypoxyprobe™) was i.p.-injected at 60 mg/kg one hour before mice were euthanized. Tumors were removed, fixed in 10% neutral buffered formalin, and embedded in paraffin. For spheroid cultures, pimonidazole was added at a final concentration of 200 μM two hours before fixation and paraffin-embedding.
Five μm-thick sections were cut and adhered to poly-L-Lysine-coated glass microscope slides. After deparaffinization and rehydration, slides were stained by haematoxylin–eosin (H&E) or Alcian blue (pH 1) to visualize aggrecan or used for immunohistochemistry. After antigen retrieval, endogenous peroxidase quench and saturation, slides were incubated with the primary antibody: anti-Ki 67 (Abcam) rabbit polyclonal antibody (1/2000, 11 hours, RT), anti-pimonidazole (Hypoxyprobe™) mouse monoclonal antibody (1/100, 30 minutes, RT) or anti-phospho-histone-H2AX (Merck Millipore) mouse monoclonal antibody (1/2000, 11 hours, RT). HRP-conjugated rabbit anti-mouse IgG1 secondary antibody (Hypoxyprobe, 1/100, 30 minutes, RT) was used to detect pimonidazole adduct and a biotinylated goat anti-mouse IgG1 secondary antibody (Vector Laboratories, 1/500, 1 hour) was used to detect anti-Ki-67 and anti-phospho-histone-H2AX. Biotin was then complexed with streptavidin-coupled HRP (Vector Laboratories, 1/500, 30 minutes). HRP was detected using a DAB ultravision detection system (Thermo Scientific).
For orientation: Immunoblotting shows a protein as a band on a membrane.

Experiment [3] relates to human osteosarcoma Saos-2 cells. Description: Cytotoxic activity on osteosarcoma Saos-2 cells. Format: cell-based. The note with it: hypoxic conditions, unpublished data of the authors.
[4] abbreviates: tumors sampled one day after last injection.

With `Cn1c(COP(=O)(NCCC[N+](C)(C)C)N(CCCl)CCCl)cnc1[N+](=O)[O-]` (centres unmarked) [8-QA], in experiment [1] (hypoxia (N2, O2 < 0.3%), 25, 50, 100 μM for 24 hours), the “Cell cycle distribution in hypoxia” value was “high accumulation of cells in S and SubG0/G1 phases”. Also, in experiment [1] (hypoxia, 100 μM, 24 hours), the “Annexin V positive cells (cell death vs control)” value is recorded as 4.1 fold. Further, the “Cell cycle distribution in normoxia” value in experiment [1] (normoxia (21% O2), 25, 50, 100 μM for 24 hours) is “increase in S-phase”. The “Mitotic index in tumor tissues” value in experiment [2] (H&E, tumors sampled at D41, 47.0 μmol/kg i.v. q4d x 6) is recorded as 9.7 ± 9.0 mitosis per 10 fields. For the same molecule, in experiment [2], the “γH2AX-positive cells in pimonidazole-positive hypoxic tumor areas” value (“γH2AX-positive cells” below) is on record as “strong increase of γH2AX-positive cells”. Moreover, in experiment [2] (setting [4]), the “Phosphorylated-p53 (S15) in tumors, western blot” value is recorded as “significant increased of phosphorylated-p53 (S15)”; the “p21 in tumors, western blot” value is “induction of p21”; the “p-CHK1 in treated tumor samples, western blot” value is “no increase of p-CHK1”. This molecule also had an IC50 in experiment [3] of 132 ± 29 µM.
In the case of `C[N+](C)(C)CCCNP(=O)(OCc1ccccc1)N(CCCl)CCCl` (centres unmarked) [10-QA], the “γH2AX-positive cells” value in experiment [2] is “did not cause any γH2AX-positive cells”.
For the molecule `CCCNP(=O)(OCc1cnc([N+](=O)[O-])n1C)N(CCCl)CCCl` (centres unmarked) [compound 8], the “γH2AX-positive cells” value in experiment [2] is “did not cause any γH2AX-positive cells”.

Usually IC50 stands for the concentration that gives 50% inhibition. High values mean weaker potency in that assay, low ones greater potency in that assay.

For the origin of these results see article PMC5707064, “Proteoglycan-targeting applied to hypoxia-activated prodrug therapy in chondrosarcoma: first proof-of-concept” (Oncotarget, 2017).
